{"source": "patent US20140272095A1", "about": "“GLUTAMIC ACID DERIVATIVES” (Givaudan S.A., priority 2011, published 2014)", "assay_type_in_all_cases": "in vivo", "key": {"[1]": {"assay": "Flavourist tasting, enhancement effect on ribonucleotides (solution F versus C, Example 3)", "settings": "10 ppm in 0.5% NaCl and 0.015% ribonucleotides; marked between 0 and 10; ribo reference solution C = 5.0", "method": "(§1) Six solutions were prepared: • A a solution of 0.5% NaCl • B a solution of 0.5% NaCl and 0.03% MSG • C a solution of 0.5% NaCl and 0.015% ribonucleotides • D a solution of 0.5% NaCl and 10 ppm Example 1 compound • E a solution of 0.5% NaCl and 0.03% MSG and 10 ppm Example 1 compound • F a solution of 0.5% NaCl and 0.015% ribonucleotides and 10 ppm Example 1 compound\n(§2) The samples were tasted by a group of 5-10 flavourists aged between 30 and 60. The taste of solution D is compared with that of A to determine the enhancement effect of Example 1 compound on NaCl. Similarly, solution E is compared with solution B and solution F with solution C to determine the enhancement effect of Example 1 compound on MSG and ribonucleotides respectively. The effect is marked between 0 and 10, the greater the value the greater the effect."}, "[2]": {"assay": "Flavourist tasting of a 0.5% NaCl / 0.03% MSG solution, salt intensity versus reference solution A (Example 2)", "settings": "10 ppm compound in 0.5% NaCl and 0.03% MSG; average rating of 4 flavourists versus solution A; scale -3 (much lower than base) to 3 (much higher), 0 = same as base", "method": "(§3) Two solutions were prepared: • A a solution of 0.5% NaCl and 0.03% MSG • B a solution of 0.5% NaCl and 0.03% MSG and 10 ppm Example 1 compound\n(§4) The samples were tasted by a small group of flavourists (2 male, 2 female, aged between 30 and 60). The intensity of the umami and salt taste of solution B was compared with that of the reference (solution A) and rated according to the following intensity scale:\n(§5) The results (average of ratings given by the flavourists) were: […]"}, "[3]": {"assay": "Flavourist tasting of a 0.5% NaCl / 0.03% MSG solution, umami intensity versus reference solution A (Example 2)", "settings": "10 ppm compound in 0.5% NaCl and 0.03% MSG; average rating of 4 flavourists versus solution A; scale -3 (much lower than base) to 3 (much higher), 0 = same as base", "method": "as §3, §4, §5"}, "[4]": {"assay": "Flavourist tasting, enhancement effect on MSG (solution E versus B, Example 3)", "settings": "10 ppm in 0.5% NaCl and 0.03% MSG; marked between 0 and 10; MSG reference solution B = 5.0", "method": "as §1, §2"}, "[5]": {"assay": "Flavourist tasting, enhancement effect on NaCl (solution D versus A, Example 3)", "settings": "10 ppm in 0.5% NaCl; marked between 0 and 10, greater value = greater effect; salt reference solution A = 0.0", "method": "as §1, §2"}, "[6]": {"assay": "Bouillon tasting by flavourists versus reference bouillon (Example 4)", "settings": "250 ppm in bouillon (32 g mix in 1 L boiling water); 4 flavourists", "method": "A bouillon mix was prepared from 155.0 g of sodium chloride, 157.0 g of dextrose monohydrate (ex Tapioca), 0.2 g of celery oleoresin, 0.3 g of oleoresin turmeric Vegex, 0.2 g of oleoresin coriander seed, 444.8 g maltodextrin 5-8 DE, 40.0 g vegetable oil soya bean refined, 30.0 g yeast standard light, 4.0 g of onion powder, 4.0 g of garlic powder, 0.5 g of white pepper and 164.0 g of potato starch.\n32 g of the well-mixed ingredients was added to 1 L of boiling water and stirred until completely dissolved.\nA small group of flavourists (2 male, 2 female) compared the taste of the reference bouillon with that of a batch of the same bouillon containing 250 ppm of 2-(amino(carboxy)methyl)-cyclopropanecarboxylic acid. The flavourists agreed that the test bouillon was more umami and saltier than the reference bouillon."}, "[7]": {"assay": "Bread comparison by a panel of professional tasters (Example 5)", "settings": "bread B: 20 g NaCl and 0.025 g compound in the flour mixture; bread A: 20 g NaCl only", "method": "A bread flour mixture was prepared by mixing 1250 g of wheat flour, 250 g of white wheat flour and 60 g of yeast. Two salt mixtures were added to separate flour mixtures: • A 20 g of NaCl • B 20 g of NaCl and 0.025 g (+−)-1-aminocyclopentane-trans-1,3-dicarboxylic acid\nDoughs were prepared by mixing the ingredients and adding 900 g of water. The doughs were allowed to rise at room temperature for 2 hours and baked at 220° C. for 45 minutes.\nA panel of professional tasters compared the breads. The bread B was preferred over reference bread A."}}}
{"smiles": "CCOC(=O)C(N)C1CC1C(=O)OC.Cl", "note": "(centres unmarked) [methyl 2-(1-amino-2-ethoxy-2-oxoethyl)cyclopropanecarboxylate, HCl]", "values": [{"measurement": "Ribo taste", "setting": "[1]", "result": 5.4}, {"measurement": "Intensity Taste Salt (NaCl)", "setting": "[2]", "result": 0.00}, {"measurement": "Intensity Taste Umami", "setting": "[3]", "result": 1.00}, {"measurement": "MSG taste", "setting": "[4]", "result": 5.5}, {"measurement": "NaCl Taste", "setting": "[5]", "result": 0.0}]}
{"smiles": "N[C@]1(C(=O)O)CC[C@H](C(=O)O)C1", "note": "(racemic) [(±)-1-Aminocyclopentane-cis-1,3-dicarboxylic acid]", "values": [{"measurement": "Ribo taste", "setting": "[1]", "result": 5.2}, {"measurement": "Intensity Taste Salt (NaCl)", "setting": "[2]", "result": 1.00}, {"measurement": "Intensity Taste Umami", "setting": "[3]", "result": 0.00}, {"measurement": "MSG taste", "setting": "[4]", "result": 6.7}, {"measurement": "NaCl Taste", "setting": "[5]", "result": 1.3}]}
{"smiles": "NC(C(=O)O)C1CC1C(=O)O", "note": "(centres unmarked) [2-(amino(carboxy)methyl)cyclopropanecarboxylic acid]", "values": [{"measurement": "Ribo taste", "setting": "[1]", "result": 5.7}, {"measurement": "Intensity Taste Salt (NaCl)", "setting": "[2]", "result": 0.00}, {"measurement": "Intensity Taste Umami", "setting": "[3]", "result": 1.00}, {"measurement": "MSG taste", "setting": "[4]", "result": 6.3}, {"measurement": "NaCl Taste", "setting": "[5]", "result": 1.2}, {"measurement": "Salt taste of test bouillon versus reference bouillon", "setting": "[6]", "result": "saltier"}, {"measurement": "Umami taste of test bouillon versus reference bouillon", "setting": "[6]", "result": "more umami"}]}
{"smiles": "N[C@@]1(C(=O)O)CC[C@H](C(=O)O)C1", "note": "(racemic) [(±)-1-Aminocyclopentane-trans-1,3-dicarboxylic acid]", "values": [{"measurement": "Ribo taste", "setting": "[1]", "result": 6.3}, {"measurement": "Intensity Taste Salt (NaCl)", "setting": "[2]", "result": 1.00}, {"measurement": "Intensity Taste Umami", "setting": "[3]", "result": 0.00}, {"measurement": "MSG taste", "setting": "[4]", "result": 5.3}, {"measurement": "NaCl Taste", "setting": "[5]", "result": 2.0}, {"measurement": "Preference of bread B over reference bread A", "setting": "[7]", "result": "preferred"}]}
